For assay [1], the target named is Induced myeloid leukemia cell differentiation protein Mcl-1 (Homo sapiens, UniProt Q07820). It counts as functional.
The nature of assay [2]: THP-1 cell cytotoxicity, dose response, cytotoxicity control for non-replicating M. tuberculosis project (AID 489025). It counts as functional.
The next assay can be described thus: cells. Format: functional.
In assay [3] the target is T1, Rac GTPase-activating protein 1 (Homo sapiens, UniProt Q9H0H5).
T1 sequence (Q9H0H5 whole entry): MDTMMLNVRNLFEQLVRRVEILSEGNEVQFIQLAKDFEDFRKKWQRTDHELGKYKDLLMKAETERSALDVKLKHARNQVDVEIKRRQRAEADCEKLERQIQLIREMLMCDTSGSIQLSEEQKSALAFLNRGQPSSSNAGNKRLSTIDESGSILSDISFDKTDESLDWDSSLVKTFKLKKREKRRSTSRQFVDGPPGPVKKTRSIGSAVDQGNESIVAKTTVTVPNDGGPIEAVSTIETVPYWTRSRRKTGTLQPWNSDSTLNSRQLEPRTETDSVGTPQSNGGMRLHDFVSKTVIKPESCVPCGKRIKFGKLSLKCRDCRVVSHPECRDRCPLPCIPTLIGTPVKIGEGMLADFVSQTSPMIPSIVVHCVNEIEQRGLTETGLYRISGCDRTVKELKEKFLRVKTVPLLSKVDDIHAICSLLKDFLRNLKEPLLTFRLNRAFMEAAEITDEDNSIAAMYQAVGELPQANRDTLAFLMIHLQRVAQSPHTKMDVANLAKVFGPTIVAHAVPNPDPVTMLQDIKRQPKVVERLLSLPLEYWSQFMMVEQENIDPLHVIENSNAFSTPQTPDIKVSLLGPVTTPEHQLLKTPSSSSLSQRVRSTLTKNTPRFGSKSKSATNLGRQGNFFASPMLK
Nature of the assay: blockers of MgcRacGAP-driven Rac1 GTP hydrolysis – biochemical, ADP Hunter fluorescence, primary and confirmatory, confirmation (AID 624330). Format: functional.

For assay [4], the target named is T2, Calpain-2 catalytic subunit (Sus scrofa, UniProt P43367).
T2 sequence (P43367 whole entry): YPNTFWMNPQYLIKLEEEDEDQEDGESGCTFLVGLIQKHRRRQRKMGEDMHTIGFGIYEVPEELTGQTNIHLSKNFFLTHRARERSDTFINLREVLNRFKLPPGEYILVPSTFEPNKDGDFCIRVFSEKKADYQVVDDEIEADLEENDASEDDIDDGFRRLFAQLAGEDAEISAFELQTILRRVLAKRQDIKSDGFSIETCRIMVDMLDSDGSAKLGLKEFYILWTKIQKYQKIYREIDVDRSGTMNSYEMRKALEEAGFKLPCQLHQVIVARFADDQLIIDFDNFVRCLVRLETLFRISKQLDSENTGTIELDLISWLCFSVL
Nature of the assay: m-calpain protease blockers, concentration series – biochemical, fluorogenic peptide substrate, dose response (AID 1420). It counts as functional.

The next assay has as its target Cytochrome P450 3A4 (Homo sapiens, UniProt P08684).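 Further: CYP3A4 tested as one member of a cytochrome P450 panel screen.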
A further assay deals with T3, Cytochrome P450 1A2 (Homo sapiens, UniProt P05177).
T3 sequence (P05177 whole entry): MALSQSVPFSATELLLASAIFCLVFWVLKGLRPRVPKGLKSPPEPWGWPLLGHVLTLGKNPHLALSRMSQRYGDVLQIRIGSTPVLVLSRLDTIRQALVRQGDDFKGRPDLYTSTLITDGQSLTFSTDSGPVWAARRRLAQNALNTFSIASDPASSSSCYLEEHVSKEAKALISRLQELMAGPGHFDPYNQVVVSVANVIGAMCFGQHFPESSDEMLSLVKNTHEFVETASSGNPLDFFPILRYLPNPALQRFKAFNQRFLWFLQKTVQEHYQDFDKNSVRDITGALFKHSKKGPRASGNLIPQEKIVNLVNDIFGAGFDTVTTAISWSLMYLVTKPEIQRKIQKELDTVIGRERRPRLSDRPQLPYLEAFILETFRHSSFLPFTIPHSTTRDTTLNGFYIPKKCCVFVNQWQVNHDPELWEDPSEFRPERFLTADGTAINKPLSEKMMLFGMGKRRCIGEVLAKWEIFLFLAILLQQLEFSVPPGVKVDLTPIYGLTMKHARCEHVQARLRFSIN

Assay [5] addresses T4, Corticotropin-releasing factor receptor 2/Corticotropin-releasing factor-binding protein (Homo sapiens, UniProt P24387+Q13324).
T4 sequence (Q13324 whole entry): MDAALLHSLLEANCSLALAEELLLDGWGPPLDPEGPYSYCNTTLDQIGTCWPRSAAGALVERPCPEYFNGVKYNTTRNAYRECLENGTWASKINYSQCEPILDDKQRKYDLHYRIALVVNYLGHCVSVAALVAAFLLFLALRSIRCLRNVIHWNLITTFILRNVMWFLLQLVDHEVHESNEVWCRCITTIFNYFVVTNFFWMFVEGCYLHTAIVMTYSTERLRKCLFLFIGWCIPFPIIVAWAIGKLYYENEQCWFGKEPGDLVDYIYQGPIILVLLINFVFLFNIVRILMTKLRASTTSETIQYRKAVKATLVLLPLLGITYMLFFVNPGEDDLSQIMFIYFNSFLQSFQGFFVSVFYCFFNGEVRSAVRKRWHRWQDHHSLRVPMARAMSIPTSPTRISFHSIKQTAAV
T4 sequence (P24387 whole entry): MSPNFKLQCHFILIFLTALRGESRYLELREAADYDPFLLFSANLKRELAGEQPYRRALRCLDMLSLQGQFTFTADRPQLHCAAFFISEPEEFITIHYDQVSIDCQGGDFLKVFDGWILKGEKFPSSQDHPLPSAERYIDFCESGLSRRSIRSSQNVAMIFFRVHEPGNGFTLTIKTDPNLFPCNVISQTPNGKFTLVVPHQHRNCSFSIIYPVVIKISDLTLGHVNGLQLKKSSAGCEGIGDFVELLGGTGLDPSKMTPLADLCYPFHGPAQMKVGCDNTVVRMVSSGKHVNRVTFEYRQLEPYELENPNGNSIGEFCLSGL
Nature of the assay: Dose Response confirmation of uHTS hits for small molecule antagonists of the CRF-binding protein and CRF-R2 receptor complex. Format: functional. Conditions: read-out: IC50_Mean.

Assay [6] has as its target T4, Corticotropin-releasing factor receptor 2/Corticotropin-releasing factor-binding protein. Put plainly: activators of CRF receptor 2 with binding protein – uHTS hits, confirmation (AID 602473). It counts as functional. Conditions: read-out: EC50_Mean.
Assay [7] is described as follows: microbe, parasite or virus in culture. Conditions: Mycobacterium tuberculosis. It counts as functional.
Assay [8] in a line: NIH3T3 cell viability loss – ATP luminescence, mouse fibroblasts, counter-screen, dose response (AID 2010).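 Further: cells exposed to compound for about 90 hours before reading.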 Format: functional, cell-based. For orientation: The purpose of a counterscreen is to sort out artefacts and off-target activity.
Assay [9] in a line: Trypanosoma cruzi growth suppression in host cells – NIH3T3 host cells, beta-gal luminescence, confirmation (AID 2044).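 Further: intracellular parasites grown in NIH/3T3 mouse fibroblasts as host cells; luminescent beta-galactosidase reporter signal from transgenic T. cruzi replicating inside host cells; inhibitors lower the luminescence signal.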 Format: functional, cell-based.
A short description of assay [10]: Luminescence Cell-Based Dose Response HTS to Identify Activators of Luciferase Translation or Activity in H4 […] Cells. [Related pubchem assays: 1829 (Project Summary), 1814 (Primary HTS)]. Format: functional.
For a further assay, the system named is H4. Put plainly: Luminescence Cell-Based Dose Response HTS to Identify Activators of 5'UTR Stem-Loop Driven Prion Protein mRNA Translation in H4 Neuroglioblastoma Cells. [Related pubchem assays: 1829 (Project Summary), 1814 (Primary HTS)]. It counts as functional. Conditions: Homo sapiens.
Assay [11] in a line: viability of uninfected HEp-2 cells – cell-based, HTS, cytotoxicity control for RSV inhibitor project, dose response (AID 2410). It counts as functional. Conditions: human respiratory syncytial virus.
Assay [12] is described as follows: reduction of Shn3 3'UTR-driven luciferase in osteoblasts – cell-based, Clone20 osteoblasts, firefly luciferase, cherry-picked, dose response (AID 624132).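 Further: firefly luciferase luminescence from reporter carrying the Shn3 3'UTR in osteoblasts.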 It counts as functional.
Assay [13] can be described thus: non-specific 3'UTR reporter inhibition in Clone20-Shn3RL – cell-based, Renilla luciferase, cherry-picked, counter-screen for Shn3 inhibitor project, dose response (AID 624133). It counts as functional.
A short description of assay [14]: loss of viability in HepG2 cells – cell-based, CellTiter-Glo, cherry-picked, cytotoxicity control for Shn3 inhibitor project, dose response (AID 624134). It counts as functional. For orientation: In ATP-based viability assays light output follows the ATP content of the culture.
A further assay concerns INS1. Nature of the assay: INS-1E survival protection against cytokine death – cell-based, luminescence, retest, dose response (AID 449756).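 Further: cell death triggered by IL-1 beta plus TNF-alpha plus IFN-gamma mixture; protective hits raise ATP signal compared with cytokine alone wells.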 It counts as functional. Conditions: Rattus norvegicus.
Assay [15] is described as follows: viability of PTEN-deleted HCT116 cells – cell-based, HCT116 PTEN knockout, dose response (AID 1047).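 Further: HCT116 colon tumor cells with PTEN knocked out; cells exposed to compound for 60 hours before readout; potency for loss of cell viability measured by luminescence.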 It counts as functional.
Assay [16] in a line: viability of HCT116 lacking mutant beta-catenin – cell-based, human colon tumor, dose response (AID 1045).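 Further: HCT116 colon tumor cells with beta catenin knocked out; cells exposed to compound for 60 hours.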 Format: functional.

Each structure is given as a SMILES string. Activity calls are given as the source filed them. Bounds are passed on as bounds.

The text below walks through data of ChEMBL document CHEMBL1201862, “PubChem BioAssay data set” (2004).

Sequence of Induced myeloid leukemia cell differentiation protein Mcl-1 (Q07820 whole entry): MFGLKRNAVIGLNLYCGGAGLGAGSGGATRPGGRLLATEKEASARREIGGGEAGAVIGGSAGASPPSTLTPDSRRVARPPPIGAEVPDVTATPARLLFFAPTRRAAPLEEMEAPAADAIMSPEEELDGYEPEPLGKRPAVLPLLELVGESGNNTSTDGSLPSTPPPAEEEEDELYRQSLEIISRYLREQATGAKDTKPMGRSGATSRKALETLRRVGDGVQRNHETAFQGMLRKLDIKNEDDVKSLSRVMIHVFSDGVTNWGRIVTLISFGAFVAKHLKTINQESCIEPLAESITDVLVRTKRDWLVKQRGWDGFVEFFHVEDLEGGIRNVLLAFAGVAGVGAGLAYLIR
Sequence of Cytochrome P450 3A4 (P08684 whole entry): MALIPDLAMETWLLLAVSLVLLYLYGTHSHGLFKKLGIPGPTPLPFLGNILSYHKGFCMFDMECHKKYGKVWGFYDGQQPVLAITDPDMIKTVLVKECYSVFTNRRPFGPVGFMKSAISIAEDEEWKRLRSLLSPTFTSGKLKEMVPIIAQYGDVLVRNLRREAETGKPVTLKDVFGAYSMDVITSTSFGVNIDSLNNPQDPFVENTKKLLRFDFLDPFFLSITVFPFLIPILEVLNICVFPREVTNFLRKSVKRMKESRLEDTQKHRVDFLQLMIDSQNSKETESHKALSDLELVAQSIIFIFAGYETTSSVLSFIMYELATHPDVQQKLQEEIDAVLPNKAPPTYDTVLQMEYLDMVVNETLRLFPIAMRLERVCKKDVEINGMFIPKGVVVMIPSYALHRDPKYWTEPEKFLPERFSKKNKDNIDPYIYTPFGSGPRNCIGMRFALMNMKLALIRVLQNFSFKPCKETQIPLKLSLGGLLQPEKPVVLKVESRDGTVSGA

With `CCN(CC)c1ccc(NC(=O)c2ccccc2OCC(=O)OC)cc1`, the IC50 in assay [1] is 6.35 µM (not active).

In the case of `C/N=C1/S/C(=C\c2ccc(OCC(=O)OC)c(OC)c2)C(=O)N1C`, the CC50 in assay [2] is > 40 µM (active). Moreover, the IC50 in “cells” was 4.45 µM (active).

As to `CCOc1cc(/C=C(\C#N)c2n[nH]c(N)c2C#N)ccc1O`, the IC50 in assay [3] is 17.1 µM (active); in assay [1], 5.24 µM (active).

Regarding `CC(C)(C)c1csc(NC(=O)c2ccccc2O)n1`, the CC50 in [2] is 38.7 µM (active).

As for `SC1=NC[C@H](Cc2cccc3ccccc23)N1CC1CCCCC1`, the IC50 in assay [4] is recorded as > 50 µM (not active).

With `CCCCc1ccc(NC(=O)C2CCCO2)cc1` (stereo not given), the IC50 in assay [4] is on record as 13.4 µM (not active).

As usually defined, the AC50 is the concentration giving half of the maximal activity seen. `CC1CCCN(C(=O)c2sc3cc([N+](=O)[O-])ccc3c2Cl)C1` (stereo not given): in [4], the IC50 was 7.61 µM (active). Also, the AC50 is 17.8 µM (inconclusive) on Cytochrome P450 3A4 and 15.8 µM (inconclusive) at Cytochrome P450 1A2.

As to `Cc1ccc(CN2CCSc3ccc(C(=O)N4CCN(c5ncccn5)CC4)cc32)cc1`, the IC50 in assay [5] is > 47.1 µM (inactive). For the same compound, the EC50 in assay [6] was > 53 µM (inactive).

For `CC(/C=N/NC(=O)c1cc(-c2ccc3ccccc3c2)[nH]n1)=C\c1ccco1`, the CC50 in assay [7] was 37.2 µM (active). In addition, the IC50 in assay [1] is 4.1 µM (active).

As to `Cc1ccc(C2(C)CC(C)(C)N(C(=O)CSc3nnc(C)s3)c3ccccc32)cc1` (stereo not given), the IC50 in [5] was > 47.1 µM (inactive). Besides, the EC50 in assay [6] was > 53 µM (inactive).

Take `Cc1noc(NS(=O)(=O)c2ccc(NC(=O)c3ccc(N4C(=O)c5ccccc5C4=O)cc3)cc2)c1C`: the IC50 in assay [4] was 4.9 µM (not active).

Consider `CCNc1nc(NCC)nc(C(=O)NN)n1`, for which, in [1], the IC50 was 2.32 µM (active).

With `COc1ccccc1-c1c(NC(=O)C(C)C)n(C)c2ccccc2c1=O`, the IC50 in [5] was > 47.1 µM (inactive). The EC50 in assay [6] was > 53 µM (inactive).

With `O=C(Cn1cnc([N+](=O)[O-])n1)NCCc1ccccc1`, the IC50 in assay [5] was > 47.1 µM (inactive). In addition, the figures for the EC50 in [6], in assay [8] and in [9] were > 53 µM (inactive), > 60 µM (not active) and 537 nM (active), respectively.

In the case of `O=C(C[C@H]1C/C=C\C[C@@H](Cc2ccc(F)cc2)C(=O)O[C@H](c2ccccc2)CNC1=O)NCCO`, the IC50 in assay [5] is > 47.1 µM (inactive). Further, the EC50 in assay [6] was > 53 µM (inactive).

On to `CC1CCC(NC(=O)Cn2ncc3ccccc32)CC1` (stereo not given), for which the EC50 (in assay [10]; with H4) was > 120 µM (not active) each time.

On to `COc1ccc(CNc2ccc([N+](=O)[O-])cc2C)cc1`, for which the IC50 in assay [4] was 3.81 µM (not active). In assay [11], the CC50 was 35 µM (active).

As to `O=C(CCC(=O)N1CCOc2ccccc21)NC1CCCCCC1`, in assay [5], the IC50 is > 47.1 µM (inactive). The EC50 in assay [6] is > 53 µM (inactive).

For `CC1=C(C#N)C(C(F)(F)F)(C(F)(F)F)NC(c2ccco2)=N1`, the AC50 was 7.72 µM (active) in [12], 10.1 µM (active) in assay [13], > 70 µM (inactive) in assay [14] and 4.65 µM (active) with INS1.

Turning to `O=C(/C=C/c1cccs1)N1CCOCC1`, the IC50 in [4] is reported as > 50 µM (not active).

`CC1(C(=O)OCC(=O)Nc2nnc(-c3ccccc3)o2)CC1(Cl)Cl` (stereo not given): the CC50 in assay [2] was > 40 µM (active). For the same compound, in “cells”, the IC50 was 24.9 µM (active).

`O=C(C1CC1)N1CCc2cc(Br)cc(S(=O)(=O)NC3CCCCC3)c21`: the IC50 in assay [4] is given as > 50 µM (not active).

Turning to `Cc1cccc(C(=O)Oc2ccc(/C=N/NC(=O)c3ccc(O)cc3)cc2)c1`, the IC50 in assay [5] is > 47.1 µM (inactive). Besides, in assay [6], the EC50 is > 53 µM (inactive).

`Cc1cc([N+](=O)[O-])c(-c2ccc(/C=N/n3cnnc3)o2)cc1Cl`: in assay [4], the IC50 was 1.59 µM (not active).

Turning to `c1ccc(N2CCN(c3ncnc4scc(-c5cccs5)c34)CC2)cc1`, the IC50 in assay [4] is recorded as 1.1 µM (not active). The EC50 in assay [15] is 56.8 µM (active); in assay [16], 71.5 µM (active).

With `CN1C(=O)c2ccc(C(=O)NCc3ccc4c(c3)OCO4)cc2C1=O`, the IC50 in assay [4] is on record as 23.2 µM (not active).

For the compound `CC(=O)N[C@H]1C[C@@H]1c1ccccc1`, the IC50 in [5] is > 47.1 µM (inactive). For the same compound, the EC50 in assay [6] is > 53 µM (inactive).
